Entries after “also recorded” stand apart in the source; their conditions may differ.
Key:
BY4743 yeast cells = type: cell-based
Arabidopsis seedlings = tested on: Arabidopsis seedlings; parameters: species or system Arabidopsis thaliana; conditions: in vivo
[1] = tested on: mitochondrial membrane potential (ψmito) in BY4743 yeast cells; type: cell-based
yeast cells = conditions: cited from earlier work

C/C=C\C(=O)O[C@@H]1C[C@H]2O[C@@H]3C=C(C)C(=O)C[C@]3(C)[C@]1(C)[C@]21CO1 [Tcin, trichothecin]
growth against Tcin (BY4743 yeast cells): increasingly resistant to Tcin | growth against Tcin relative to cells carrying the vector alone (BY4743 yeast cells): more sensitive to Tcin | growth against Tcin relative to cells containing the vector alone (BY4743 yeast cells): provided resistance | effect on root growth of the wild type (Arabidopsis seedlings): severely limited root growth; also recorded: severely restricts root initiation and elongation | change of ψmito with increasing concentrations of Tcin [1]: did not change much | IC50 (yeast cells): 2500 nM

COc1ccc(C[C@H]2NC[C@H](O)[C@H]2OC(C)=O)cc1 [anisomycin]
shift in growth sensitivity relative to cells carrying the vector alone (BY4743 yeast cells): no significant shift in growth sensitivity

O=C(N[C@H](CO)[C@H](O)c1ccc([N+](=O)[O-])cc1)C(Cl)Cl [chloramphenicol]
shift in growth sensitivity relative to cells carrying the vector alone (BY4743 yeast cells): no significant shift in growth sensitivity

C[C@@H]1C[C@@H]([C@H](O)CC2CC(=O)NC(=O)C2)C(=O)[C@@H](C)C1 [cycloheximide]
shift in growth sensitivity relative to cells carrying the vector alone (BY4743 yeast cells): no significant shift in growth sensitivity

From patent US9428758B2 (priority 2011, dated 2016)
